Measured values reported in PMC7570859, “Simultaneous Quantification and Pharmacokinetic Study of Five Homologs of Dalbavancin in Rat Plasma Using UHPLC-MS/MS” (Molecules, 2020).
Like-named read-outs stand apart in the source and are kept apart here.

Assays:
[1] = Pharmacokinetic study of dalbavancin components in rat plasma after IV dalbavancin hydrochloride (UHPLC-MS/MS); conditions: SD rats, IV 40 mg/kg dalbavancin hydrochloride, mean ± SD, n = 10; for AUC(0–t): 0 to 216 h; for AUC(0–t) / AUC(0–∞): UHPLC-MS/MS, non-compartmental; for MRT / half-life / Vd: both, Sprague-Dawley, rat, iv, 40 mg/kg; for MRT: MRT(0–t); for Vd: Vz (apparent volume of distribution)
Experimental: (§1) A total of 20 animal plasma samples were analyzed using the verified UHPLC-MS/MS detection method to evaluate 28-day multiple-dose pharmacokinetics of dalbavancin hydrochloride injected daily in rats.
(§2) Blood samples were collected and centrifuged (5417R centrifuge, Eppendorf AG, Hamburg, Germany) at 835× g for 10 min to separate the upper plasma. Then, 50 μL of plasma was mixed with 200 μL of methanol (containing dalbavancin B0-D8 isotope internal standard solutions at a concentration of 100 ng/mL), after which the solution was swirled with a multi-tube vortex mixer (Allsheng, Hangzhou, China) for 10 min and centrifuged at 12,000× g for 10 min. To obtain a cleaner supernatant, it was further centrifuged at 12,000× g for 5 min before sample injection.
(§3) The UHPLC system consisted of an ACQUITY UPLC I-Class (Waters Corp., Milford, MA, USA) and separation was achieved on an ACQUITY UPLC BEH C18 (2.1 mm × 100 mm, 1.7 μm, Waters Corp.). The mobile phase contained 0.1% formic acid (phase A) and acetonitrile (phase B), while the gradient elution procedure was as follows; 0.00–1.00 min: 20%B→30%B, 1.00–6.00 min: 30%B→33%B, 6.01–7.00 min: 95%B, 7.00–7.01 min: 95%B→20%B, 7.01–8.00 min: 20%B. The flow rate was 0.300 mL/min, and the sample injection volume was 5.0 μL. The autosampler was maintained at 6 °C.
(§4) The mass spectrometry system used was Xevo TQ triple quadrupole MS/MS (Waters Corp.), equipped with ESI source. After injecting 500 ng/mL of dalbavancin component combined solution and dalbavancin isotope internal standard solution into the mass spectrometer, the optimized parameters of the instrument were obtained as follows: capillary voltage, 3.00 kV; ion source temperature, 150 °C; desolvation gas temperature, 350 °C; collision gas flow rate, 0.15 mL/min; desolvation gas flow rate, 650 L/h. SRM was used for monitoring the positive ion mode and the total analysis run time was 8 min. Data was processed using UNIFI v1.9.3 software (Waters Corp.).
(§5) A total of 20 SD rats (weighing approximately 200 g each) were selected and divided into two equal groups, with each group containing 5 male and 5 female rats. Pharmacokinetic experiments were conducted for single-dose and multiple-dose administration of dalbavancin hydrochloride. The route of administration was IV, with an administration volume of 5 mL/kg and a dosage was 40 mg/kg. Blood sampling time points of the single-dose administration group were before administration (0 h) and 5 min, 3 h, 8 h, 24 h, 72 h, 144 h, and 216 h post administration. Blood was collected on day 28 for the multiple-dose administration group, and the time points of blood collection were the same as those of single-dose administration. The blood samples collected were immediately separated using centrifugation at 12,000× g for 10 min, and then, the plasma were transferred and stored at −16 °C to −24 °C until analysis.
(§6) Microsoft Office Excel 2007 and IBM SPSS Statistics 19.0 were used for data processing and statistical calculation using two-tailed Student’s t-test. Data Analysis System 3.1 software (DAS, Shanghai, China) was used to analyze and calculate AUC(0–∞), T1/2, Cmax and other parameters using the non-compartmental model.

[2] = rat, in vivo, iv, 40 mg/kg
Experimental: as §1, §2, §3, §4, §5, §6

[3] = in vivo; cited from earlier work
[4] = D28, multiple-dose group, daily for 28 days
[5] = T1/2, D28, multiple-dose group, daily for 28 days

AUC(0–t) ([1]; D1, single-dose group) [µg·h/mL] | AUC(0–∞) ([1]; D1, single-dose group) [µg·h/mL] | Cmax ([1]; D1, single-dose group) [ng/mL] | Vz (apparent volume of distribution) ([1]; D1, single-dose group) [L/kg] | MRT ([1]; D1, single-dose group) [h] | MRT [1, 4] [h] | half-life ([1]; T1/2, D1, single-dose group) [h] | Vd [1, 4] [L/kg] | half-life [1, 5] [h] | MRT(0–t) ([2]; both, Sprague-Dawley) [h] | T1/2 ([2]; both, Sprague-Dawley) [h] | Vz (apparent volume of distribution) ([2]; both, Sprague-Dawley) [L/kg] | AUC(0–t) [2] [µg·h/mL] | AUC(0–∞) [2] [µg·h/mL] | Cmax [2] [ng/mL] | plasma AUC(0–∞) relative to the other components combined [2] | Vd ([1]; D1, single-dose group) [L/kg] | Compound | adverse event: diarrhea [3] [%] | adverse event: headache [3] [%] | adverse event: nausea [3] [%]
10.5 ± 2.6 | 11.8 ± 2.6 | 1800 ± 200 | 32.9 ± 5.7 | 5.6 ± 0.3 | 60.7 ± 2.7 | 6.5 ± 0.6 | 196 ± 27.3 | – | – | – | – | – | – | – | – | – | CN[C@H]1C(=O)N[C@@H]2Cc3ccc(cc3)Oc3cc4cc(c3O[C@@H]3O[C@H](C(=O)O)[C@@H](O)[C@H](O)[C@H]3NC(=O)CCCCCCCC(C)C)Oc3ccc(cc3Cl)[C@@H](O)[C@@H]3NC(=O)[C@H](NC(=O)[C@@H]4NC(=O)[C@@H](NC2=O)c2cc(cc(O)c2Cl)Oc2cc1ccc2O)c1ccc(O)c(c1)-c1c(O[C@H]2O[C@H](CO)[C@@H](O)[C@H](O)[C@@H]2O)cc(O)cc1[C@@H](C(=O)NCCCN(C)C)NC3=O [A0] | – | – | –
155.4 ± 79.9 | 173.1 ± 65.6 | 14800 ± 6100 | 9.4 ± 3.3 | 17 ± 3.8 | 53 ± 5.2 | 27.5 ± 11.4 | 10.1 ± 1.3 | 110 ± 10.6 | – | – | – | – | – | – | – | – | CCCCCCCCCCC(=O)N[C@H]1[C@H](Oc2c3cc4cc2Oc2ccc(cc2Cl)[C@@H](O)[C@@H]2NC(=O)[C@H](NC(=O)[C@@H]4NC(=O)[C@H]4NC(=O)[C@@H](Cc5ccc(cc5)O3)NC(=O)[C@H](NC)c3ccc(O)c(c3)Oc3cc(O)c(Cl)c4c3)c3ccc(O)c(c3)-c3c(O[C@H]4O[C@H](CO)[C@@H](O)[C@H](O)[C@@H]4O)cc(O)cc3[C@@H](C(=O)NCCCN(C)C)NC2=O)O[C@H](C(=O)O)[C@@H](O)[C@@H]1O [A1] | – | – | –
– | – | – | – | – | – | – | – | – | 23.0 ± 0.9 | 74.6 ± 45.9 | 0.7 ± 0.5 | 5776.5 ± 2593.2 | 6566.7 ± 1820.3 | 437300 ± 160300 | approximately 5.8 times | – | CN[C@H]1C(=O)N[C@@H]2Cc3ccc(cc3)Oc3cc4cc(c3O[C@@H]3O[C@H](C(=O)O)[C@@H](O)[C@H](O)[C@H]3NC(=O)CCCCCCCCC(C)C)Oc3ccc(cc3Cl)[C@@H](O)[C@@H]3NC(=O)[C@H](NC(=O)[C@@H]4NC(=O)[C@@H](NC2=O)c2cc(cc(O)c2Cl)Oc2cc1ccc2O)c1ccc(O)c(c1)-c1c(O[C@H]2O[C@H](CO)[C@@H](O)[C@H](O)[C@@H]2O)cc(O)cc1[C@@H](C(=O)NCCCN(C)C)NC3=O [B0] | – | – | –
688.2 ± 272.2 | 756.2 ± 191.4 | 42900 ± 18900 | – | 32.3 ± 1.5 | 68.6 ± 8.2 | 29.1 ± 1.1 | 1.2 ± 0.4 | 87 ± 27.5 | – | – | – | – | – | – | – | 2.3 ± 0.4 | CCCCCCCCCCCC(=O)N[C@H]1[C@H](Oc2c3cc4cc2Oc2ccc(cc2Cl)[C@@H](O)[C@@H]2NC(=O)[C@H](NC(=O)[C@@H]4NC(=O)[C@H]4NC(=O)[C@@H](Cc5ccc(cc5)O3)NC(=O)[C@H](NC)c3ccc(O)c(c3)Oc3cc(O)c(Cl)c4c3)c3ccc(O)c(c3)-c3c(O[C@H]4O[C@H](CO)[C@@H](O)[C@H](O)[C@@H]4O)cc(O)cc3[C@@H](C(=O)NCCCN(C)C)NC2=O)O[C@H](C(=O)O)[C@@H](O)[C@@H]1O [B1] | – | – | –
163.7 ± 79.5 | 187.2 ± 61.2 | 23400 ± 10400 | – | 16.2 ± 2.4 | 55.7 ± 4.7 | 87.3 ± 68.9 | 13.5 ± 3.4 | 153 ± 43 | – | – | – | – | – | – | – | 28 ± 23 | CC(C)CCCCCCCCC(=O)N[C@H]1[C@H](Oc2c3cc4cc2Oc2ccc(cc2Cl)[C@@H](O)[C@@H]2NC(=O)[C@H](NC(=O)[C@@H]4NC(=O)[C@H]4NC(=O)[C@@H](Cc5ccc(cc5)O3)NC(=O)[C@H](N(C)C)c3ccc(O)c(c3)Oc3cc(O)c(Cl)c4c3)c3ccc(O)c(c3)-c3c(O[C@H]4O[C@H](CO)[C@@H](O)[C@H](O)[C@@H]4O)cc(O)cc3[C@@H](C(=O)NCCCN(C)C)NC2=O)O[C@H](C(=O)O)[C@@H](O)[C@@H]1O [B2] | – | – | –
– | – | – | – | – | – | – | – | – | – | – | – | – | – | – | – | – | Dalbavancin | 4.4 | 4.7 | 5.5
